Experimental data taken from patent US12059429B2, “Hornerin: a novel non-VEGF mediated angiogenic protein expressed in both human and mouse angiogenic endothelial cells and human pancreatic cancer cells” (University of Virginia Patent Foundation, priority 2018, dated 2024).

Experiments:
[1] = tested on: tumor vessels; experiment: Tumor vessel parameters in L3.6pl tumor sections (CD34, ACTA2, RAVE analysis); type: in vivo, mouse
Protocol: Following completion of the treatment schedule, the mice were killed, cardiac perfused, and the tumors were excised and fixed in formalin overnight. The tumors were paraffin embedded and cut into 5 (thin) or 50 μm (thick) sections. Tumor vessel parameters were evaluated in the following number of tumors for each treatment cohort: (Scr siRNA/ctrl., N=10; Hrnr siRNA/ctrl., N=10; Scr siRNA/AV-951, N=4; Hrnr siRNA/AV-951, N=4).
Tumor sections were deparaffinized, rehydrated, heated in antigen retrieval solution (Vector), blocked for 30 minutes in blocking buffer, and incubated with anti-CD34 antibody (Abcam, ab8158, clone MEC14.7; 1:100) in blocking buffer overnight at 4° C. The sections were then incubated with goat anti-rat FITC secondary antibody (Abcam, ab6840; 1:100) in blocking buffer prior to mounting with Prolong Gold Antifade reagent (Invitrogen). Anti-actin, α-smooth muscle Cy3 antibody (Sigma, C6198, clone 1A4; 1:200) was added to the primary antibody solution if assaying for alpha-smooth muscle actin. To compare hornerin expression in vessels and tumor tissue treated with Hrnr siRNA and Scr siRNA, thin paraffin sections were deparaffinized and stained with anti-CD34 and anti-hornerin antibodies described. Images were collected using a Nikon TE 2000-E2 microscope (Nikon Instruments) equipped with a Melles Griot Argon Laser System (Melles Griot, Carlsbad, CA, USA) and a Nikon D-Eclipse C1 confocal attachment and analyzed by Measurement Tool in Image J. To measure the relative hornerin expression in tumor vessels, three vessel segments per image were isolated and their mean intensity and area were measured and recorded. A weighted mean intensity was calculated to correct for differences in selected area. To measure the relative hornerin expression in tumor tissue, the mean intensity from three square sections (75×75 pixel) of tumor tissue per image was measured and recorded.
(§1) Vessel parameters were measured using RAVE software (Seaman et al., 2011). For detection of proliferation and apoptosis, the sections were incubated with the primary antibodies anti-Ki67 (Abcam, ab15580; 1:200) or anti-cleaved caspase 3 (Cell Signaling, 9661; 1:200), respectively, overnight at 4° C. followed by incubation with anti-rabbit AF594 (Abcam, 150080; 1:200).

[2] = tested on: L3.6pl tumors; experiment: Ki67 and cleaved caspase 3 immunofluorescence in tumor sections; type: in vivo, mouse; conditions: day 15 tumor sections
Protocol: as §1

[3] = tested on: human hornerin; experiment: In vitro siRNA treatment of human keratinocytes (immunoblot); type: cell-based
Protocol: (§2) For in vitro siRNA-mediated hornerin knockdown, COCA cells and human keratinocytes were plated at a density of 0.1×10^6 cells/well in a six-well cluster plate. The cells were treated the following day with Scr siRNA or Hrnr siRNA (Invitrogen; siRNA sequences identical to those utilized in tumor studies) following an established protocol (see Rachow et al., 2013). Briefly, 100 μL of 10 μM siRNA and 12.5 μL of Lipofectamine 2000 (LF2000; Invitrogen) were added to separate 625 μL OptiMEM (Thermo Fisher Scientific) aliquots. After 5 minutes at RT, the solutions were mixed and incubated for an additional 30 minutes, upon which 5 ml of keratinocyte media were added. The cells were incubated overnight in 3 ml of the siRNA/LF2000/media mixture, replenished the following morning with media containing 2 mM CaCl2) to induce differentiation, and lysed in RIPA buffer 8 hours post-media change. Lysate preparations were subjected to immunoblot using the primary antibodies anti-human hornerin (Abcam; 1:1000), anti-mouse hornerin (Santa Cruz Biotechnology, Dallas, TX, USA, sc164605; 1:200), or anti-beta actin (Cell Signaling; 1:4000), and respective secondary antibodies anti-goat HRP (R&D Systems; 1:10,000), and anti-mouse HRP (R&D Systems; 1:10,000). Uncropped hornerin immunoblots are represented in FIGS. 6A and 6B.

[4] = tested on: L3.6pl xenografts; experiment: Flow cytometry/FACS of tumor cell populations; type: in vivo, mouse
Protocol: Day 10 tumors were injected with either Scr siRNA or Hrnr siRNA and excised 20 hours later. The tumors were immediately washed in PBS (+Mg/+Ca), minced with scalpels, treated with Collagenase Type II (Worthington Biochemical Corporation, Lakewood, NJ, USA; (2.0 mg/mL) serum-free DMEM, 100 minutes at 37° C.), and filtered through a 40 μm cell strainer. The cell suspension (filtrate) was incubated with the following antibody/dye panel for FACS; anti-CD45 AF488 (1:100; Biolegend, San Diego, CA, USA, 103121, clone 30-F11), anti-CD31 AF647 (1:100; Biolegend, 102415, clone 390), LIVE/DEAD violet stain (1:200; Thermo Fisher). Flow cytometry analysis was completed on the Cyan ADP LX (Beckman Coulter). Compensation and data analysis was completed using FlowJo software (Ashland, OR, USA). FACS was completed in the UVA flow cytometry core on the Influx cell sorter (BD Biosciences, Franklin Lakes, NJ, USA).

[5] = tested on: tumor vasculature; experiment: Photoacoustic microscopy of tumor vasculature; type: in vivo, mouse; conditions: day 12
Text: Using an established PAM system (Wang & Hu, 2012; Ning et al., 2015a; Ning et al., 2015b), the tumor vasculature was characterized in vivo. Two laser wavelengths, 532 and 559 nm, were used to simultaneously quantify microvascular diameter, oxygen saturation, and blood flow at the same spatial scale (Ning et al., 2015a). The applied optical energies were 100 and 75 nJ, which are below the maximum permissible exposure energy. Throughout the experiment, mice were maintained under anesthesia with 1.5% vaporized isoflurane and the body temperature was kept at 37° C. All experimental procedures were carried out in conformity with the laboratory animal protocol approved by the Animal Care and Use Committee at the University of Virginia.

[6] = tested on: murine Hrnr; experiment: In vitro siRNA-mediated hornerin knockdown in COCA cells (immunoblot); type: cell-based; conditions: COCA mouse keratinocytes, densitometry
Protocol: as §2

[7] = L3.6pl tumors, RAVE, vs Scr siRNA
[8] = four-group combination experiment, vs control

5′-GCAUGGAUCUUGUUGCGGUTT-3′ [Hrnr siRNA]
increase in ACTA2 coverage of vessels ([1]; ACTA2-positive pixels / CD34-positive pixels, vs Scr siRNA): 2.3 fold | number of vessels per field ([1]; CD34-positive vessels per 0.4 mm^2 field, vs Scr siRNA): not different | fractal dimension (tortuosity) [1, 7]: reduced | vessel radius [1, 7]: overall reduction in vessel radius | vessel volume fraction (VVF) [1, 7]: reduced | number of vessels per field [1, 8]: no change in the number of vessels per field | vessel radii [1, 8]: smaller radii | cleaved caspase 3 levels in tumors relative to control [2]: two-fold increase | loss of hornerin relative to Scr siRNA ([3]; similar conditions): ~10% | hornerin expression level relative to Scr siRNA ([3]; similar siRNA conditions): ~90% | proportion of leukocytes (CD45+/CD31- cells) ([4]; FACS of tumor cell suspensions): not altered | proportion of endothelial cells (CD31+/CD45-) ([4]; FACS, vs Scr siRNA): not different | tumor blood hemoglobin levels [5]: remained unchanged | tumor blood oxygen saturation compared to control [5]: 1.7 fold | reduction in hornerin expression (knockdown) relative to Scr siRNA [6]: 60%
